Results from paper PMC7462607 (eLife, 2020).
Like-named read-outs stand apart in the source and are kept apart here.

B1: HBx peptide (α-helical motif of the hepatitis B virus X protein) (peptide)
peptide: ILPKVLHKRTLGLS
notes: peptide corresponding to the α-helical motif of hepatitis B virus X protein (HBx); also called HBx peptides; source: synthetic peptide (ChinaPetides, purity 96%)

Key:
CCNK-luc reporter = assay: CCNK-luc degradation assay; type: cell-based, Homo sapiens
Description: The ORF for CCNK was fused with the firefly luciferase (luc) sequence and inserted into the pCDNA3.1 vector. For setting up cells for co-transfection, 0.6 million 293 T cells were seeded per well in 6-well plates and allowed to attach to plates overnight. These cells were then transfected with 50 ng of pCDNA3.1-3xFLAG-CDK12 kinase domain, 50 ng of pCDNA3.1-CCNK-luc, and 400 ng of the empty pCDNA3.1 vector. Twenty-four hours later, transfected cells were dissociated by trypsin digestion and then plated in 96-well white plates. After overnight attachments, cells were then treated with HQ461 and its analog derivatives for 8 hr followed by measurements of luciferase activity with Bright-Glo luciferase assay system (Promega, Madison, USA). Half maximal CCNK-degradation concentrations (DC50) of HQ461 and its active analogs were interpolated by curve fitting with GraphPad Prism using baseline correction (by normalizing to DMSO control), the asymmetric (five parameter) equation, and least squares fit.

CCNK = assay: Western blotting of CCNK protein level in A549 cells; type: cell-based, Homo sapiens; conditions: for effect on HQ461-dependent CCNK degradation: A549 treated with HQ461 plus inhibitor; for CCNK degradation by compound alone: A549; for effect on HQ461-induced CCNK degradation: A549 treated with inhibitor prior to HQ461 treatment
Description: Standard SDS-PAGE and western blotting procedures were used with the following modifications. For preparation of total lysates, cells were rinsed with DPBS to remove residual medium and then lysed in 20 mM HEPES-NaOH, pH 8.0, 10 mM NaCl, 2 mM MgCl2, 1% SDS freshly supplemented with 0.5 units/µL of benzonase and 1x cOmplete, Mini, EDTA-free protease inhibitor cocktail (Roche, Bazel, Switzerland). Protein concentrations of the resulting lysates were quantified by the BCA method. Between 30 to 60 µg of proteins were resolved on SDS-PAGE and transferred to nitrocellulose membranes with a pore size of 0.5 μm. Membranes were blocked in 5% nonfat milk PBST (0.1% v/v Tween-20) for 30 min before blotting with antibodies. The following primary antibodies were used by dilution in 5% nonfat milk PBST: anti-NRF2 (Abcam, Cambridge, UK, ab62352, 1:4,000), anti-β-Actin-HRP (Huaxingbio, Beijing, China, HX18271,1:10,000), anti-α-Tubulin-HRFP (MBL Life Science, Japan, PM054-7, 1:10,000), anti-DDB1 (Abcam, Cambridge, UK, ab109027, 1:10,000), anti-RBX1 (Proteintech, Wuhan, China, 14895–1-AP, 1:5,000), anti-UBE2G1 (Proteintech, Wuhuan, China, 12012–1-AP, 1:2,000), anti-CDK12 (Cell Signaling Technology, Danvers, USA, 11973S,1:4,000), anti-CCNK (Bethyl lab, Montgomery, USA, A301-939A-T,1:4,000), anti-FLAG-HRP (Sigma-Aldrich, MO, USA, A8592, 1:10,000), anti-HA (BioLegend, San Diego, USA, 901533, 1:4,000), anti-RNA polymerase II subunit B1 (phospho CTD Ser-2) clone 3E10 (Sigma-Aldrich, MO, USA, 04–1571, 1:5,000), and anti-RNA polymerase II CTD repeat YSPTSPS antibody clone 8WG16 (Abcam, Cambridge, UK, ab817, 1:5,000). The following HRP-linked secondary antibodies were used by dilution in PBST: anti-rabbit IgG (Cell Signaling Technology, Danvers, USA, 7074S, 1:10,000), anti-mouse IgG (Zsbio, Beijing, China, ZB-2305, 1:10,000), and anti-rat IgG, (Sino Biological, Beijing, China, SSA005, 1:10,000). M5 HiPer ECL Western HRP Substrate (Mei5bio, Beijing, China, MF074-01) was used for the detection of HRP enzymatic activity. Western blot images were taken with a VILBER FUSION FX7 imager.

[1] = target: T1, FLAG-Avi-DDB1 and His-CDK12KD/His-CCNKΔC (WT) (Homo sapiens, UniProt Q9NYV4); assay: AlphaScreen assay, WT; type: binding; conditions: preincubated with 5 µM THZ531
T1 construct: Human CDK12KD (residues 715–1052); made in house; host or cells: Sf9 or High Five (CDK12KD/CCNKΔC, co-infected with yeast CAK1); 293F with BirA (FLAG-Avi-DDB1)
Description: Biotinylated FLAG-Avi-DDB1 (3 µM) and 6xHis-CDK12KD/6xHis-CCNKΔC (WT or G731E/R mutants) (3 µM) were mixed in an assay buffer (50 mM HEPES, pH7.5, 300 mM NaCl, 0.5 mM TCEP, 0.1% NP-40, 0.1% BSA) and a serial dilution of HQ461.The protein-compound mix was transferred to 384-well plates (Corning, Corning, USA); 15 μL per well. After a 1 hr room temperature incubation, 10 µL of nickel chelate (Ni-NTA) acceptor beads (PerkinElmer, Waltham, USA, Waltham, USA, 6760619C) (1:100 diluted with assay buffer) was added per well. After incubation in the dark for 1 hr at room temperature, 10 μL of streptavidin donor beads (PerkinElmer, Waltham, USA, 6760619C) (1:100 diluted in assay buffer) was added per well. After another 1 hr incubation, AlphaScreen signal was measured on the EnVision multimode plate reader (PerkinElmer, Waltham, USA). For THZ531 competition, FLAG-Avi-DDB1, 6xHis-CDK12KD/6xHis-CCNKΔC mix was preincubated with 5 μM of THZ531 for 30 min on ice followed by the procedures described above.

[2] = target: T2, DDB1ΔBPB (DDB1 without its BPB domain) (human, UniProt Q16531-1 1-1140, removing residues 400–704); assay: differential scanning fluorimetry; 5 µM DDB1ΔBPB with 10 µM HBx peptide; SYPRO Orange; 50 mM HEPES pH 7.5, 300 mM NaCl, 0.5 mM TCEP; 10°C to 95°C; conditions: both partners purified
T2 construct: also called Strep-8×His-DDB1ΔBPB

[3] = 293T, 8 hr, read-out: DC50 (half maximal CCNK-degradation concentration)

T2 sequence (Q16531 other isoform, or with tags, fused parts or gaps with the stated changes): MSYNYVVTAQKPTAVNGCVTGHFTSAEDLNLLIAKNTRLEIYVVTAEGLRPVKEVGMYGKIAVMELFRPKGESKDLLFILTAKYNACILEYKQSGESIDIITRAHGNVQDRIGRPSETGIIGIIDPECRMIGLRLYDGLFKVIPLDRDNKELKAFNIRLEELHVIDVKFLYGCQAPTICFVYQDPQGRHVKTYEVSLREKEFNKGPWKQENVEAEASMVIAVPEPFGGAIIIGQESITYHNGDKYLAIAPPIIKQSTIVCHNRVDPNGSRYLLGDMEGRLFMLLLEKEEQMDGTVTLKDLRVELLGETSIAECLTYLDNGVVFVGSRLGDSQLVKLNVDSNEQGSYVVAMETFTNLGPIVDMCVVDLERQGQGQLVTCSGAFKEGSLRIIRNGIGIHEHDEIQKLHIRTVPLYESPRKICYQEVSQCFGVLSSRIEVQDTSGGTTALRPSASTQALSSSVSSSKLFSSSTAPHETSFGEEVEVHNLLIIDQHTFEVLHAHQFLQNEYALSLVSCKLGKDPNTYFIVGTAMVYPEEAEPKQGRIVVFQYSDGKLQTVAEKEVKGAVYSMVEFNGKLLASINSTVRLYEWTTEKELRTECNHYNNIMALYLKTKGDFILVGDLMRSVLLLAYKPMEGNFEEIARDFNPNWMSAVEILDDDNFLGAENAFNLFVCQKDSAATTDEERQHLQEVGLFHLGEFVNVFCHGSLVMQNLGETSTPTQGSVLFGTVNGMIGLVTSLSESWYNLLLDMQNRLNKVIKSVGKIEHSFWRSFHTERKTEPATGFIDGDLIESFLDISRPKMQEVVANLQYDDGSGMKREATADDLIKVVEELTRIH
T1 sequence (Q9NYV4 715-1052 limits assumed, stated change not applied): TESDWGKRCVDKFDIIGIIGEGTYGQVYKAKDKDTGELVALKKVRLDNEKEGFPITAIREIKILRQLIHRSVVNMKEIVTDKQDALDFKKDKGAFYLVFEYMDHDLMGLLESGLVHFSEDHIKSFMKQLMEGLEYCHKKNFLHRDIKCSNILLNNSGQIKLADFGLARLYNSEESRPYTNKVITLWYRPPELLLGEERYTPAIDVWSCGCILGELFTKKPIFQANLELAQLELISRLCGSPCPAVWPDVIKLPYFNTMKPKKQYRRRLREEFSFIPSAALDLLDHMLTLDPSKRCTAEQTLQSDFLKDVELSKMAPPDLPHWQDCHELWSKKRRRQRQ
T1 sequence (O75909 11-267 partner limits assumed): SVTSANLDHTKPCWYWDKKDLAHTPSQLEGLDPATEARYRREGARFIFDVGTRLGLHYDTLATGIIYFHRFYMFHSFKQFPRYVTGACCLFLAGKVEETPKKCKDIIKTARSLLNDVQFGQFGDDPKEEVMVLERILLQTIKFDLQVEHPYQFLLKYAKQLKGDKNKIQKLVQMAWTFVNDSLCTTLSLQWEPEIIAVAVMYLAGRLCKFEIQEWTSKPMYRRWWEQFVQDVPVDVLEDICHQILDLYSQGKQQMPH
T1 sequence (Q16531 whole entry partner, the tested form may be a part): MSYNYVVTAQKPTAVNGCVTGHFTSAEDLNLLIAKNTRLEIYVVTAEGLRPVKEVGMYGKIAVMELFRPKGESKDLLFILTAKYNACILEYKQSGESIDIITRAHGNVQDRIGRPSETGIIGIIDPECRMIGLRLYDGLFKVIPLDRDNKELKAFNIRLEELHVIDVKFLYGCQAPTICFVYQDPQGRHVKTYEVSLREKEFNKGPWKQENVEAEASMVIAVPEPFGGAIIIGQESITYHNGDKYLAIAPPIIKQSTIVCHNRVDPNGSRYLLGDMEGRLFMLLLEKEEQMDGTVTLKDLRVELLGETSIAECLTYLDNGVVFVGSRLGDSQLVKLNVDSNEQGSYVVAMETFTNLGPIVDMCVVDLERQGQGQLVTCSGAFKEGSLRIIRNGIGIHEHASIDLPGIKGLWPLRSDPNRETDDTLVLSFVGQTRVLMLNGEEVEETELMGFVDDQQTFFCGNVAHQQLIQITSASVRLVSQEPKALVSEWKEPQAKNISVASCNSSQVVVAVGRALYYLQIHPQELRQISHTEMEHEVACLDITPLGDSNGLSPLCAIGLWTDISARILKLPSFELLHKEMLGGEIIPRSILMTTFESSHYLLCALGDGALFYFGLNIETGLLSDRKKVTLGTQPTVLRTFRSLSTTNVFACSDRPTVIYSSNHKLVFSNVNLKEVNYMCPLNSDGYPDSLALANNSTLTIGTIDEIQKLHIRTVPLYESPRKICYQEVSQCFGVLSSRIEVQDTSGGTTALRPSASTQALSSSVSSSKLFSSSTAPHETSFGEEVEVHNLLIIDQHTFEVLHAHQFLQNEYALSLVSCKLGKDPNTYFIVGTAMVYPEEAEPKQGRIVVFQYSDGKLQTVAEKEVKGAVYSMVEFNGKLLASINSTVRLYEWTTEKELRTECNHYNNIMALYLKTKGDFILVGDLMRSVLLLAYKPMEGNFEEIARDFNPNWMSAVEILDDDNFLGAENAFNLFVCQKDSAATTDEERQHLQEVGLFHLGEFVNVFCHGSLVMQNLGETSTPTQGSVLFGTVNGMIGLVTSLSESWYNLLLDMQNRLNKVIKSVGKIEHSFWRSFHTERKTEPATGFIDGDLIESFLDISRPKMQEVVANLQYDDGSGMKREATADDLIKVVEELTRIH

| Molecule | DC50 (CCNK-luc reporter; [3]) | Dmax (10 μM), percentage of CCNK degradation relative to DMSO control (CCNK-luc reporter; 8 hr) | further results |
| --- | --- | --- | --- |
| CCc1cccc(Nc2nc(CC(=O)Nc3ncc(C)s3)cs2)n1 [HQ004, 2-(2-((6-ethylpyridin-2-yl)amino)thiazol-4-yl)-N-(5-methylthiazol-2-yl)acetamide] | 542 nM | – | – |
| Cc1cnc(NC(=O)Cc2csc(NC(=O)c3cccc(Br)n3)n2)s1 [HQ014, 6-bromo-N-(4-(2-((5-methylthiazol-2-yl)amino)−2-oxoethyl)thiazol-2-yl) Picolinamide] | – | 9.9% | CCNK degradation activity relative to HQ461 (CCNK-luc reporter): losses in activity |
| Cc1cnc(NC(=O)Cc2csc(Nc3cccc(N)n3)n2)s1 [HQ007, 2-(2-((6-aminopyridin-2-yl)amino)thiazol-4-yl)-N-(5-methylthiazol-2-yl)acetamide] | 561 nM | – | – |
| NC(=O)c1ccccc1NC(=O)Cc1csc(Nc2ccccn2)n1 [HQ021] | – | 7.8% | – |
| Cc1cccc(Nc2nc(CC(N)=O)cs2)n1 [HQ017] | – | 4.2% | – |
| Cc1cnc(NC(=O)Cc2csc(Nc3cccc(CO)n3)n2)s1 [HQ005, 2-(2-((6-(hydroxymethyl)pyridin-2-yl)amino)thiazol-4-yl)-N-(5-methylthiazol-2-yl)acetamide] | – | 86.5% | fold increase in potency relative to HQ461 (CCNK-luc reporter): 3 fold; DC50 (CCNK-luc reporter; read-out: DC50): 41 nM |
| Cc1ccnc(Nc2nc(CC(=O)Nc3nc4c(s3)CCCC4)cs2)c1 [HQ018] | – | 18.8% | – |
| Cc1cnc(NC(=O)Cc2csc(N)n2)s1 [HQ011, 2-(2-aminothiazol-4-yl)-N-(5-methylthiazol-2-yl)acetamide] | – | – | CCNK degradation activity relative to HQ461 (CCNK-luc reporter): losses in activity |
| Nc1nc(CC(=O)Nc2nc(-c3ccco3)cs2)cs1 [HQ013, 2-(2-aminothiazol-4-yl)-N-(4-(furan-2-yl)thiazol-2-yl)acetamide] | – | 8.6% | – |
| NS(=O)(=O)OC[C@@H]1C[C@@H](n2ccc3c(N[C@H]4CCc5ccccc54)ncnc32)C[C@@H]1O [MLN4924] | – | – | effect on HQ461-dependent CCNK degradation (CCNK): abrogated HQ461-dependent CCNK degradation |
| Cc1cnc(NC(=O)Cc2csc(Nc3cccc(F)n3)n2)s1 [HQ001, 2-(2-((6-fluoropyridin-2-yl)amino)thiazol-4-yl)-N-(5-methylthiazol-2-yl)acetamide] | 300 nM | – | – |
| Cc1cccc(Nc2nc(CC(=O)NC(C)c3ccccc3)cs2)n1 (centres unmarked) [HQ015] | – | 8.6% | – |
| O=C(Cc1csc(Nc2ccccn2)n1)NCc1nc2ccccc2[nH]1 [HQ020] | – | 15.5% | – |
| CCc1cnn2c(NCc3ccc[n+]([O-])c3)cc(N3CCCC[C@H]3CCO)nc12 [dinaciclib] | – | – | CCNK degradation by compound alone (CCNK): Neither THZ531 nor dinaciclib treatment caused CCNK degradation; effect on HQ461-induced CCNK degradation (CCNK): prevented CCNK degradation |
| CN(C)C/C=C/C(=O)Nc1ccc(C(=O)N2CCC[C@@H](Nc3ncc(Cl)c(-c4c[nH]c5ccccc45)n3)C2)cc1 [THZ531] | – | – | effect on HQ461-dependent formation of the CDK12KD/CCNKΔC/DDB1 complex [1]: inhibited HQ461-dependent formation of the CDK12KD/CCNKΔC/DDB1 complex; CCNK degradation by compound alone (CCNK): Neither THZ531 nor dinaciclib treatment caused CCNK degradation; effect on HQ461-induced CCNK degradation (CCNK): prevented CCNK degradation |
| Cc1cnc(NC(=O)Cc2csc(Nc3cccc(-n4cccn4)n3)n2)s1 [HQ008, 2-(2-((6-(1H-pyrazol-1-yl)pyridin-2-yl)amino)thiazol-4-yl)-N-(5-methylthiazol-2-yl)acetamide] | 5030 nM | – | fold increase in DC50 relative to HQ461 (CCNK-luc reporter): 38 fold |
| Cc1cnc(NC(=O)Cc2csc(Nc3cccc(Br)n3)n2)s1 [HQ003, 2-(2-((6-bromopyridin-2-yl)amino)thiazol-4-yl)-N-(5-methylthiazol-2-yl)acetamide] | 407 nM | – | – |
| CC(=O)Nc1nc(CC(=O)Nc2ncc(C)s2)cs1 [HQ019] | – | 62.0% | CCNK degradation activity relative to HQ461 (CCNK-luc reporter): losses in activity |
| CCc1ccccc1NC(=O)Cc1csc(Nc2ccccn2)n1 [HQ023] | – | 3.0% | – |
| Cc1cnc(NC(=O)Cc2csc(Nc3cccc(Cl)n3)n2)s1 [HQ002, 2-(2-((6-chloropyridin-2-yl)amino)thiazol-4-yl)-N-(5-methylthiazol-2-yl)acetamide] | 471 nM | – | – |
| COc1cccc(Nc2nc(CC(=O)Nc3ncc(C)s3)cs2)n1 [HQ006, 2-(2-((6-methoxypyridin-2-yl)amino)thiazol-4-yl)-N-(5-methylthiazol-2-yl)acetamide] | 466 nM | – | – |
| CC(C)C[C@H](NC(=O)[C@H](Cc1ccccc1)NC(=O)c1cnccn1)B(O)O [bortezomib] | – | – | effect on HQ461-dependent CCNK degradation (CCNK): abrogated HQ461-dependent CCNK degradation |
| NC(=O)CNC(=O)Cc1csc(Nc2ccccn2)n1 [HQ022] | – | 25.7% | – |
| Cc1cnc(NC(=O)Cc2csc(Nc3ccccn3)n2)s1 [HQ010, N-(5-methylthiazol-2-yl)−2-(2-(pyridin-2-ylamino)thiazol-4-yl)acetamide] | 811 nM | – | fold increase in DC50 relative to HQ461 (CCNK-luc reporter): 6 fold |
| Cc1cnc(NC(=O)Cc2csc(Nc3cccc(C(F)(F)F)n3)n2)s1 [HQ009, N-(5-methylthiazol-2-yl)−2-(2-((6-(trifluoromethyl)pyridin-2-yl)amino)thiazol-4-yl)acetamide] | 2360 nM | – | – |
| B1 | – | – | increase in Tm [2]: 2 °C |
